Data reported in patent US5874461A, “Use of Nebivolol as an anti-atherogenic” (priority 1995, dated 1999).
Where two headings read alike, the source gives them in different places.

Experiments:
Format in all cases: cell-based
C6 glioma cells [1] = assay: GSH content in C6 glioma cultures after glutamate; settings: for intracellular glutathione levels: 10 mM glutamate, 6 hr or more; for GSH content: glutamate 10 mM, without or with compound 1 μM
From the text: (§1) Competitive inhibition by glutamate of cystine uptake in certain cells leads to glutathione depletion and oxidative stress. This oxidative stress model has been described for glial C6 glioma cells (Kato et al., 1992. A mechanism for glutamate toxicity in the C6 glioma cells involving inhibition of cystine uptake leading to glutathione depletion. Neurosci. 48:903-914) and for the neuronal cell line N18RE105 (Murphy et al., 1989. Glutamate toxicity in a neuronal cell line involves inhibition of cystine transport leading to oxidative stress. Neuron 2:1547-1558).
(§2) Cell culture: The C6 glioma cell line (American Type Culture Collection, CCL 107) was cultivated in DMEM supplemented with 2 or 4 mM glutamine, 1 mM pyruvate and 5 or 10% heat-inactivated foetal calf serum. Cultures were maintained at 37° C. in an air/5~10% CO2, water saturated atmosphere.
(§3) Glutathione depletion and evaluation of drugs as antioxidants: Experiments were carried out with cultures plated at 30,000~50,000 cells/cm^2 in 24-well culture plates (for toxicity and lipid peroxide measurements) or at 136,000 cells/cm^2 in 96-well culture plates (for GSH determination). After 8-24 hr, the cultures were switched to culture medium in the absence or presence of the cystine uptake inhibitor glutamate at a final concentration of 10 mM. In order to test drugs for inhibition of oxidative stress, the drug was added together with glutamate (final concentration of solvent was 0.01% hydroxypropyl-β-cylodextrin, 0.1% DMSO). Intracellular glutathione levels were measured after 6~8 hr, lipid peroxides were measured after 14~20 hr, and toxicity and protection were analysed after 48 hr using an LDH assay according to the method of Bergmeyer and Bernt (UV-assay with pyruvate and NADH. In: Methods of Enzymatic Analysis. 1974. H. U. Bergmeyer, ed. Acad. Press, New York, 2nd Ed., pp 574-579).
Determination of GSH content in C6 glioma cultures: GSH levels were analysed by a micromethod, essentially as described by Vandeputte et al. (A microtiterplate assay for total glutathione and glutathione disulfide contents in cultured/isolated cells: performance study of a new miniaturised protocol. 1994. Cell Biol. Toxicol. 10:415-421), with a modification in the washing and homogenisation procedures. Cells (in 96-well plates) were washed with PBS, were homogenised in 50 μl 10 mM HCl containing 1.3% 5-sulfosalicylic acid, and the homogenate was centrifuged at 1200×g for 10 min at 4° C. Forty μl of the supernatant was transferred to a well of a 96-well plate and 200 μl reagent (1 mM 5,5'-dithiobis-(2-nitrobenzoic acid), 0.34 mM NADPH and 6.3 mM EDTA in 143 mM phosphate buffer pH 7.4) was added. After 5 min equilibration to room temperature the reaction was started by adding 40 μl glutathione reductase (8.5 IU/ml 143 mM phosphate buffer, 6.3 mM EDTA pH 7.4). NADPH oxidation was followed at 414 nm for 5 minutes with a Multiskan MCC/340 (Labsystems), and the change in absorbance (DA) per min was calculated. The glutathione content was deduced from a standard curve ranging from 0.2 to 2 nmol commercial GSH per test (DA/min plotted versus concentration).

C6 glioma cells [2] = assay: Fluorescence measurement of intracellular peroxides in C6 glioma cells after glutamate; settings: for glutamate-mediated increase in peroxidation: 10 mM glutamate; for Intracellular peroxides (mean ± SD, n): glutamate 10 mM, without or with compound 1 μM
From the text: as §1, §2, §3
Fluorescence measurement of intracellular peroxides: Formation of intracellular peroxides was detected using 6-carboxy-2',7'-dichlorodihydrofluorescin diacetate, di(acetoxymethyl ester) (C-DCDHF, Molecular Probes). C-DCDHF was dissolved in DMSO at a concentration of 10 mM and stored at -70° C. under nitrogen. After exposure of the culture to the glutathione depleting agents, the cells were loaded with 10 μM C-DCDHF for one hour at 37° C. Medium was aspirated off, PBS was added to the cells, and plates were read in a Cytofluor II microplate reader (PerSeptive Biosystems). Excitation and emission wavelength were selected with a 485/530 nm filter pair. The results were expressed in relative fluorescence units/μg protein.

C6 glioma cells [3] = assay: Protection of C6 glioma cells from glutathione depletion-mediated oxidative stress (toxicity, LDH assay); settings: 10 mM glutamate; for IC50: 48 hr, read-out: Protection IC50 (mean ± SD, n = 3)
From the text: as §1, §2, §3

Row | SMILES | intracellular glutathione levels (C6 glioma cells [1]) | GSH content (C6 glioma cells [1]) [pmol/well] | glutamate-mediated increase in peroxidation (C6 glioma cells [2]) | Intracellular peroxides (mean ± SD, n) (C6 glioma cells [2]) | protection from cell death (C6 glioma cells [3]) | IC50 (C6 glioma cells [3]) [nM] | IC50 (C6 glioma cells [3]; C6 glioma, 48 h) [nM]
1 | Oc1ccc2c(c1)CCC(C(O)CNCC(O)C1CCc3ccccc3O1)O2 (stereo not drawn) [Compound A, [(RRSR)+(RRRS)+(SSSR) +(SSRS)]-α-[[[2-(chroman-2-yl)-2-hydroxy-ethyl]amino]methyl]-6-hydroxy-2-chromanmethanol ethanedioate (1:1)] | remained about half the levels seen in healthy control cells | 301 ± 12 | inhibited the glutamate-mediated increase in peroxidation | 137 ± 8 Relative fluorescence units/μg | protected these cultures from cell death with high potency | 8.6 ± 0.2 | ~9
2 | O[C@H](CNC[C@@H](O)[C@H]1CCc2cc(F)ccc2O1)[C@@H]1CCc2cc(F)ccc2O1 (relative stereo) [nebivolol, (RSSS) and (SRRR) α,α'-iminobis(methylene)bis[6-fluoro-2-chroman-methanol]] | remained about half the levels seen in healthy control cells | 301 ± 12 | inhibited the glutamate-mediated increase in peroxidation | 155 ± 13 Relative fluorescence units/μg | protected these cultures from cell death with high potency | 9.1 ± 0.1 | ~9
